# Experiments:
# Assay type in all cases: functional
# HOP-62 [1] = assay: Cytotoxicity against human HOP62 cells assessed as cell growth at 0.01 uM incubated for 48 hrs by sulforhodamine B assay relative to control; settings: HOP-62, 48 h, read-out: Activity
# SK-MEL-2 = assay: Cytotoxicity against human SK-MEL-2 cells assessed as cell growth at 0.01 uM incubated for 48 hrs by sulforhodamine B assay relative to control; settings: SK-MEL-2, 48 h, read-out: Activity
# NCI/ADR-RES = assay: Cytotoxicity against human NCI/ADR-RES cells assessed as cell growth at 0.01 uM incubated for 48 hrs by sulforhodamine B assay relative to control; settings: read-out: Activity
# 786-0 [2] = assay: Cytotoxicity against human 786-0 cells assessed as cell growth at 0.01 uM incubated for 48 hrs by sulforhodamine B assay relative to control; settings: 786-0, 48 h, read-out: Activity
# CAKI-1 = assay: Cytotoxicity against human Caki1 cells assessed as cell growth at 0.01 uM incubated for 48 hrs by sulforhodamine B assay relative to control; settings: CAKI-1, 48 h, read-out: Activity
# DU-145 = assay: Cytotoxicity against human DU145 cells assessed as cell growth at 0.01 uM incubated for 48 hrs by sulforhodamine B assay relative to control; settings: DU-145, 48 h, read-out: Activity
# K562 = assay: Cytotoxicity against human K562 cells assessed as cell growth at 0.1 uM incubated for 48 hrs by sulforhodamine B assay relative to control; settings: K562, 48 h, read-out: Activity
# A549 = assay: Cytotoxicity against human A549/ATCC cells assessed as cell growth at 0.1 uM incubated for 48 hrs by sulforhodamine B assay relative to control; settings: A549, 48 h, read-out: Activity
# HCC 2998 = assay: Cytotoxicity against human HCC2998 cells assessed as cell growth at 0.1 uM incubated for 48 hrs by sulforhodamine B assay relative to control; settings: HCC 2998, 48 h, read-out: Activity
# HCT-15 = assay: Cytotoxicity against human HCT15 cells assessed as cell growth at 0.1 uM incubated for 48 hrs by sulforhodamine B assay relative to control; settings: HCT-15, 48 h, read-out: Activity
# Hs-578T = assay: Cytotoxicity against human Hs 578T cells assessed as cell growth at 0.1 uM incubated for 48 hrs by sulforhodamine B assay relative to control; settings: read-out: Activity
# MDA-MB-468 = assay: Cytotoxicity against human MDA-MB-468 cells assessed as cell growth at 0.1 uM incubated for 48 hrs by sulforhodamine B assay relative to control; settings: MDA-MB-468, 48 h, read-out: Activity
# COLO 205 = assay: Cytotoxicity against human COLO205 cells assessed as cell growth at 1 uM incubated for 48 hrs by sulforhodamine B assay relative to control; settings: COLO 205, 48 h, read-out: Activity
# HT-29 [3] = assay: Cytotoxicity against human HT-29 cells assessed as cell growth at 1 uM incubated for 48 hrs by sulforhodamine B assay relative to control; settings: HT-29, 48 h, read-out: Activity
# OVCAR-8 = assay: Cytotoxicity against human OVCAR8 cells assessed as cell growth at 1 uM incubated for 48 hrs by sulforhodamine B assay relative to control; settings: OVCAR-8, 48 h, read-out: Activity
# ACHN = assay: Cytotoxicity against human ACHN cells assessed as cell growth at 1 uM incubated for 48 hrs by sulforhodamine B assay relative to control; settings: read-out: Activity
# HOP-62 [4] = assay: Cytotoxicity against human HOP62 cells assessed as cell growth at 10 uM incubated for 48 hrs by sulforhodamine B assay relative to control; settings: HOP-62, 48 h, read-out: Activity
# NCI-H226 = assay: Cytotoxicity against human NCI-H226 cells assessed as cell growth at 10 uM incubated for 48 hrs by sulforhodamine B assay relative to control; settings: NCI-H226, 48 h, read-out: Activity
# SW-620 = assay: Cytotoxicity against human SW620 cells assessed as cell growth at 10 uM incubated for 48 hrs by sulforhodamine B assay relative to control; settings: SW-620, 48 h, read-out: Activity
# SF-539 = assay: Cytotoxicity against human SF539 cells assessed as cell growth at 10 uM incubated for 48 hrs by sulforhodamine B assay relative to control; settings: SF-539, 48 h, read-out: Activity
# OVCAR-4 = assay: Cytotoxicity against human OVCAR4 cells assessed as cell growth at 10 uM incubated for 48 hrs by sulforhodamine B assay relative to control; settings: OVCAR-4, 48 h, read-out: Activity
# 786-0 [5] = assay: Cytotoxicity against human 786-0 cells assessed as cell growth at 10 uM incubated for 48 hrs by sulforhodamine B assay relative to control; settings: 786-0, 48 h, read-out: Activity
# NCI-H460 = assay: Cytotoxicity against human NCI-H460 cells assessed as cell growth at 100 uM incubated for 48 hrs by sulforhodamine B assay relative to control; settings: NCI-H460, 48 h, read-out: Activity
# HT-29 [6] = assay: Cytotoxicity against human HT-29 cells assessed as cell growth at 100 uM incubated for 48 hrs by sulforhodamine B assay relative to control; settings: HT-29, 48 h, read-out: Activity
# Malme-3M = assay: Cytotoxicity against human MALME-3M cells assessed as cell growth at 100 uM incubated for 48 hrs by sulforhodamine B assay relative to control; settings: read-out: Activity
# M14 [7] = assay: Cytotoxicity against human M14 cells assessed as cell growth at 100 uM incubated for 48 hrs by sulforhodamine B assay relative to control; settings: M14, 48 h, read-out: Activity
# M14 [8] = assay: Cytotoxicity against human M14 cells incubated for 48 hrs by sulforhodamine B assay; settings: M14, 48 h
# UACC-62 = assay: Cytotoxicity against human UACC62 cells incubated for 48 hrs by sulforhodamine B assay; settings: UACC-62, 48 h
# OVCAR-3 = assay: Cytotoxicity against human OVCAR3 cells incubated for 48 hrs by sulforhodamine B assay; settings: OVCAR-3, 48 h
# MCF7 = assay: Cytotoxicity against human MCF7 cells incubated for 48 hrs by sulforhodamine B assay; settings: MCF7, 48 h
# T47D = assay: Cytotoxicity against human T47D cells incubated for 48 hrs by sulforhodamine B assay
compound,measurement,setting,value
COc1ccc(-c2nocc2-c2cc(OC)c(OC)c(OC)c2)cc1,growth at 0.01 µM,HOP-62 [1],85%
same,growth at 0.01 µM,SK-MEL-2,99%
same,growth at 0.01 µM,NCI/ADR-RES,92%
same,growth at 0.01 µM,786-0 [2],85%
same,growth at 0.01 µM,CAKI-1,90%
same,growth at 0.01 µM,DU-145,99%
same,growth at 0.1 µM,K562,24%
same,growth at 0.1 µM,A549,47%
same,growth at 0.1 µM,HCC 2998,62%
same,growth at 0.1 µM,HCT-15,29%
same,growth at 0.1 µM,Hs-578T,77%
same,growth at 0.1 µM,MDA-MB-468,55%
same,growth at 1 µM,COLO 205,11%
same,growth at 1 µM,HT-29 [3],2%
same,growth at 1 µM,OVCAR-8,27%
same,growth at 1 µM,ACHN,52%
same,growth at 10 µM,HOP-62 [4],35%
same,growth at 10 µM,NCI-H226,67%
same,growth at 10 µM,SW-620,19%
same,growth at 10 µM,SF-539,2%
same,growth at 10 µM,OVCAR-4,32%
same,growth at 10 µM,786-0 [5],24%
same,growth at 100 µM,NCI-H460,-37%
same,growth at 100 µM,HT-29 [6],-36%
same,growth at 100 µM,Malme-3M,-31%
same,growth at 100 µM,M14 [7],-5%
same,GI50,M14 [8]; read-out: GI50,66.8 nM
same,CC50,M14 [8]; read-out: LC50 (the source's name),> 100 µM
same,TGI,M14 [8]; read-out: TGI,53.9 µM
same,GI50,M14 [8]; read-out: pGI50 (converted),66.1 nM
same,CC50,M14 [8]; read-out: pLC50 (the source's name) (converted),> 100 µM
same,TGI,M14 [8]; read-out: pTGI (converted),53.7 µM
same,GI50,UACC-62; read-out: GI50,55.7 nM
same,LC50 (concentration killing 50% of cells),UACC-62; read-out: LC50,> 100 µM
same,TGI,UACC-62; read-out: TGI,12.9 µM
same,GI50,UACC-62; read-out: pGI50 (converted),56.2 nM
same,LC50 (concentration killing 50% of cells),UACC-62; read-out: pLC50 (converted),> 100 µM
same,TGI,UACC-62; read-out: pTGI (converted),12.9 µM
same,GI50,OVCAR-3; read-out: GI50,38.6 nM
same,LC50 (50% lethal concentration),OVCAR-3; read-out: LC50,> 100 µM
same,TGI,OVCAR-3; read-out: TGI,1320 nM
same,GI50,OVCAR-3; read-out: pGI50 (converted),38.9 nM
same,LC50 (50% lethal concentration),OVCAR-3; read-out: pLC50 (converted),> 100 µM
same,TGI,OVCAR-3; read-out: pTGI (converted),1320 nM
same,GI50,MCF7; read-out: GI50,40.8 nM
same,LC50,MCF7; read-out: LC50,> 100 µM
same,TGI,MCF7; read-out: TGI,> 100 µM
same,GI50,MCF7; read-out: pGI50 (converted),40.7 nM
same,LC50,MCF7; read-out: pLC50 (converted),> 100 µM
same,TGI,MCF7; read-out: pTGI,> 100 µM
same,LC50,T47D; read-out: LC50,> 100 µM
same,TGI,T47D; read-out: TGI,86.3 µM
same,LC50,T47D; read-out: pLC50 (converted),> 100 µM
same,TGI,T47D; read-out: pTGI (converted),87.1 µM

# Reference: ChEMBL document CHEMBL4145521, “Regioselective synthesis of 3,4-diaryl-5-unsubstituted isoxazoles, analogues of natural cytostatic combretastatin A4” (Eur J Med Chem, 2018)
